Data: US8716279B2, “Pharmaceutical compositions of clonazepam and method of use thereof” (Jazz Pharmaceuticals, Inc., priority 2006, dated 2014)
Values after ≈ are worked out from the molar mass of the structure shown.

How the values were obtained:
[1] = oral; cited from earlier work
[2] = Solubility of clonazepam in glycol ethers at 25° C.
Description: 10 mg of clonazepam was weighed into glass vials used in the Pfeiffer mono-dose spray system (Pfeiffer of America, Princeton, N.J.). Four samples of each of four solvents were prepared as follows. 130-μL of each solvent was pipetted into the vial, which was then stoppered with a black chlorobutyl rubber stopper.
The vials were removed from the chamber, placed inside polyethylene centrifuge vials, and centrifuged for 2 minutes at 5000 rpm. 10 μL of liquid was then sampled from each vial, accurately weighed, and diluted with 1 mL of acetonitrile. The drug concentration was analyzed by UV using an Agilent HPLC system with no column, 10 μL injection volume, acetonitrile mobile phase, 0.3 mL/min and UV detection at 350 nm.

qEEG mapping = type: in vivo; conditions: human
Description: E. Electroencephalography (EEG) Methods: Drug and placebo are administered, for example, at a five-minute intravenous (i.v.) infusion. During 15 minutes following the beginning of the administration EEG is registered. The EEG is registered again at 30, 60, 90, 120, and 180 minutes. Subjects are typically in a quiet laboratory (soundproof and electrically shielded room). During acquisition of EEG measurements subjects recline in an armchair. Usually twenty-eight EEG leads (issued, for example, from a 10-20 system; Jasper, H. H., et al., “Studies of clinical and electrical responses to deep temporal stimulation in men with some considerations of functional anatomy,” Res Publ Assoc Res Nerv Ment Dis. 36:316-34 (1958); Japser, H. H., “Progress and problems in brain research,” J Mt Sinai Hosp N Y. 25(3):244-53 (1958)) are used for recording. An ear linked reference, as well as four artifact channels (detection of eye movement, muscle activity, and other potentials for artifacts) may be used. Silver-plated disc electrodes are attached to subject's scalp, for example, with quick drying collondion. Impedance (for example, of 2000-5000 ohms) is checked before each recording session. A calibration signal is used, before each subject is tested, in order to adjust all the recorded leads thus allowing the construction of EEG or event-related-potentials (ERP) maps. EEGs are taken under resting recording conditions (i.e., subjects are asked to relax with their eyes closed). An example of data analysis used is the method of Dago, et al. (Dago, K T, et al., “Statistical Decision Tree: a tool for studying pharmaco-EEG effects of CNS-active drugs,” Neuropsychobiology, 29(2):91-6 (1994)) which involves a statistical comparison of data obtained during active treatment versus placebo treatment. Typically, topographic mapping of mean EEG parameters and statistical evaluation of treatment effects is carried out in a selected number of healthy volunteers.
EEG profiles are determined for patients dosed intranasally with clonazepam compositions of the present invention. […]

[3] = Solubilities of clonazepam in glycol ethers at 3 temperatures
Description: The vials were then centrifuged at −5° C. and 5° C. for the −15° C. and 5° C. samples, respectively, at 5000 rpm for 2 minutes.

[4] = Solubilities of clonazepam in solvent/water solutions (glycol ether + pH6.8 buffered water, 25° C.); type: physicochemical; conditions: Di (ethyleneglycol) diethyl ether, 20% solvent / 80% pH6.8 buffered water
Description: The vials were stored at 25° C. for approximately 1 day. Prior to sampling, the vials were centrifuged at 5000 rpm for 2 minutes at 23° C. The results are shown below; neat solvent solubilities from Example 11 are included for reference. Increased water content decreases solubility substantially.

[5] = Solubility of clonazepam in binary mixtures of matrices; conditions: binary mixture with glycofurol, inferred from FIG. 2
Description: Further, the solubility of clonazepam in binary mixtures of Transcutol® (TC), triacetin (TA), glycofurol (GF) and propylene glycol (PG) was evaluated. Solubility limits of clonazepam were determined for the following formulations:
Excess drug (50 mg) was capped with about 500 μL of the solvent matrix in a 1.5 mL microfuge tube and the solution was mixed on a vortex shaker for several minutes. Thereafter, the solution was placed in an ultrasonic bath at 25° C. for 45 minutes. The temperature was regulated with a thermometer and controlled by adding ice into the bath. After 15 minutes of standing, the solutions were centrifuged at 3,000×g for 30 minutes. Solutions were then stored for 16 hours at 25° C. in an ICH cabinet and protected from light.

In the case of `O=C1CN=C(c2ccccc2Cl)c2cc([N+](=O)[O-])ccc2N1` [Clonazepam, 5-(2-chlorophenyl)-1,3-dihydro-7-nitro-2H-1,4-benzodiazepin-2-one], the “time of maximum blood concentrations” value [1] is listed as “one to two”, the “Solubilities (mg/mL) of Clonazepam in Solvent/Water Solutions” value ([2]; 1,2-dimethyxoethane, 100% solvent / 0% water, 25° C. (neat solvent value from Example 11, included for reference)) is listed as 39.3 mg/mL and the Solubility ([2]; in 1,2-dimethyxoethane, 25 C.) is listed as 39.3 mg/mL (≈ 124 mM). The “EEG changes from baseline” value (qEEG mapping; all three routes) was “increased delta and beta activity and decreased alpha and theta activity”, the “beta-1 relative power, time course of effects (post-hoc analysis)” value (qEEG mapping; intranasal administration) was “magnitude of effect similar to that from oral administration” and the “time after dosing at which the EEG pattern was noted” value (qEEG mapping; oral administration) was “approximately 2 hours”. It also gave a Solubility ([3]; in 1,2-dimethyxoethane, 5 C.) of 35.7 mg/mL (≈ 113 mM), a Solubility ([3]; in 1,2-dimethyxoethane, −15 C.) of 35.2 mg/mL (≈ 111 mM) and a Solubility ([3]; in Di (ethylene glycol) methyl ether, 5 C.) of 53.9 mg/mL (≈ 171 mM). For the same compound, the Solubility ([3]; in Di (ethylene glycol) methyl ether, −15 C.) was 58.1 mg/mL (≈ 184 mM), the Solubility ([3]; in Di (ethyleneglycol) diethyl ether, 5 C.) was 18.5 mg/mL (≈ 58.6 mM) and the Solubility ([3]; in Di (ethyleneglycol) diethyl ether, −15 C.) was 19.5 mg/mL (≈ 61.8 mM). The Solubility ([3]; in Diethylene glycol monoethyl ether, 5 C.) was 37.7 mg/mL (≈ 119 mM), the Solubility ([3]; in Diethylene glycol monoethyl ether, −15 C.) was 43.3 mg/mL (≈ 137 mM) and the “Solubilities (mg/mL) of Clonazepam in Solvent/Water Solutions” value [4] was 0.31 mg/mL. The “solubility in the 50:50 mixture” value [5] was “about 36.4 mg/mL”.
